# In patent publication US20220275461A1, “DIAGNOSTICS AND METHODS FOR PROGNOSING RESPONSE TO IMMUNOTHERAPY BASED ON THE METHYLATION STATUS OF IMMUNE SYNAPSE GENE SIGNATURE” (H. LEE MOFFITT CANCER CENTER AND RESEARCH INSTITUTE, INC., priority 2019, published 2022):
# Assays:
# [1] = tested on: CD40 gene in CAMA1 cell line; conditions: mock- vs azacytidine-treated, FIG. 18F; cited from earlier work
# [2] = tested on: epithelial cancer cell lines; experiment: PC1 scores of mock- or 5-azacitidine-treated cancer cell lines (GSE57342 dataset); format: cell-based; conditions: 26 epithelial cancer cell lines, mock- vs 5-azacitidine-treated; FIG. 18E
# Description: The GSE57342 processed dataset was downloaded and cell lines with more than three Mock- and three 5-azacitidine-treated samples was selected for analysis.
# We used the first and second principal component (a weighted average β-values among the CSG and ICG probes), as they account for the largest variability in the data, to represent the overall methylation status for 8,931 tumor and normal samples in the TCGA database. That is, PC=Σwixi, a weighted average β-values among the selected CSG and ICG probes, where xi represents gene i β-value, wi is the corresponding weight (loading coefficient) with Σwi^2=1, and the wi values maximize the variance of Σwixi. For each gene, a set of probes were selected using the following criteria to minimize noise, r<−0.2 (methylation vs gene expression) located in the TSS1500, TSS200 or the 5′UTR (Table 4). Each probe was centered but not scaled before PCA calculations.
smiles,measurement,setting,value
Nc1ncn([C@@H]2O[C@H](CO)[C@@H](O)[C@H]2O)c(=O)n1 [5-azacytidine],methylation status of CD40 gene,[1],demethylation of CD40
same,PC1 score (hypermethylation of CSGs),[2],significant decrease in PC1 scores
